Test results from US11612586B2, “Indole regulation of antigen presenting cells” (THE TEXAS A&M UNIVERSITY SYSTEM, priority 2016, dated 2023).

Tests used:
DCs = test: Antigen-uptake assay in DCs; settings: FITC-labeled OVA particles
Method: The phagocytic ability of DCs was examined by incubating DCs with FITC-labeled OVA particles, then analyzing via flow cytometry.
Ovalbumin (OVA)-Alexafluor 488 conjugate (Molecular Probes) was used for measuring antigen uptake by DCs. […] Cells were then washed 3 times with ice-cold PBS containing 0.5% BSA to terminate uptake. Cells were surface stained for CD11c and fixed with 4% paraformaldehyde. Uptake of OVA-A488 was measured by flow cytometry.

TNF = TNF production in splenic CD11c+ DCs ex vivo; assay type: cell-based, mouse; settings: indole overnight
Text: To evaluate the possible role of AhR in mediating the anti-inflammatory effects of indole on DCs, AhR-deficient mice were acquired and analyzed splenic and bone marrow-derived DCs. Splenocytes from AhR-deficient and WT mice were first treated overnight with indole, followed by stimulation with heat-killed S. typhimurium.

aldh1a2 = aldh1a2 gene expression in BMDCs, real-time qPCR; assay type: cell-based, murine; settings: day 7 BMDCs cultured with indole from day 3
Method: FIG. 13A: BMDCs were cultured from day 3 with indole (1 mM), retinoic acid (1 uM), or DMF control were assayed for aldehyde dehydrogenase (ALDH) activity using the Aldefluor commercial kit. The ALDH inhibitor, DEAB reagent, was included to control for background fluorescence. Aldefluor fluorescence as a measure of ALDH activity was analyzed by flow cytometry. Data is reported as percentage of Aldefluor positive DCs (left panel) and corresponding MFI values (right panel). Individual dots represent data from five independent experiments. FIG. 13B: Gene expression of aldh1a2 was assayed by real-time qPCR in day 7 BMDCs cultured with indole from day 3. Gene expression was normalized to 18 s ribosomal RNA. Mean of three independent experiments. *p<0.05 by Student's t test.
Total RNA was extracted from BMDCs using RNeasy Mini Kit (Qiagen) and then retro-transcribed using cDNA Superscript Mastermix (Quanta). Quantitative PCR reactions were carried out in triplicate using Perfecta SYBR Green Fast Mix, Low ROX (Quanta).
Gene expression levels for each individual sample were normalized to 18 s. Mean relative gene expression was determined and differences were calculated using the 2^−ΔC(t) method.

B220 (CD45R) = test: B220 surface expression on BMDCs; assay type: cell-based, mouse; settings: BMDCs cultured from day 3 with indole (1 mM) or retinoic acid (1 μM)
Method: (§1) FIGS. 12A and 12B graphically illustrate that indole induces CCR9 and B220 on DCs. BMDCs were cultured in the presence of indole (1 mM), retinoic acid (1 μM), or DMF solvent control from day 3. On day 7, DCs were surface stained for expression of CCR9 and B220 and analyzed by flow cytometry. […] Mean of three independent experiments. * indicates p<0.05 for one-way ANOVA followed by Dunnett's post-test.
An indole-induced upregulation of the B220 (CD45R) antigen was also observed (FIGS. 12A and 12B), which is widely used to distinguish the plasmacytoid DC lineage and is believed to contribute to gut homing. However, more recently B220 has been reported to distinguish a DC subset more closely developmentally related to conventional rather than plasmacytoid DCs and a precursor to resident CD8+ and CD8− conventional DCs.

CCR9 = CCR9 surface expression on BMDCs; assay type: cell-based, mouse; settings: BMDCs cultured from day 3 with indole (1 mM) or retinoic acid (1 μM), day 7
Method: as §1
Dendritic cell subsets bear numerous surface antigens that regulate their migration and localization. Because indole is produced in the gut and appears to induce anti-inflammatory properties in DCs (as described above), it was hypothesized that indole might affect migration and retention in mucosal tissues. Thus, expression of the gut homing marker, chemokine receptor CCR9 was investigated. […] Retinoic acid (RA) was included as a positive control. RA is present in murine plasma at approximately […] and is predicted to exist at higher concentrations in tissue microenvironments in vivo. Thus, 1 uM was used as a conservative estimate of relevant physiological concentration. Indole's effect was even more profound than that of retinoic acid, a known inducer of mucosal homing markers on T cells (see, e.g., Iwata M, et al. (2004) Retinoic Acid Imprints Gut-Homing Specificity on T Cells. Immunity 21(4):527-538). […]

MHC-II and CD86 = settings: BMDC, indole from day 0, 3, or 6, LPS stimulation
Method: Upon encountering and engulfing antigen, DCs upregulate their expression of maturation markers including MHC-II and the co-stimulatory molecule, CD86.
All primary cells were cultured in RPMI 1640 supplemented with 2-mercaptoethanol, gentamicin, penicillin, streptomycin, and 10% FCS (all from Life Technologies). Bone marrow-derived dendritic cells were cultured as previously described (Inaba K, et al. (1992) Generation of large numbers of dendritic cells from mouse bone marrow cultures supplemented with granulocyte/macrophage colony-stimulating factor. The Journal of Experimental Medicine 176(6):1693-1702) with slight modifications. Briefly, bone marrow cells were harvested from murine femurs and cultured in complete media supplemented with 10% FCS, 20 ng/ml GM-CSF (Peprotech), and 10 ng/ml IL-4 (Peprotech). Media was replenished at day 2, 4, and 6 of the 7 day culture.

naïve CD4+CD25− T cells = test: DC-T cell co-culture, polyclonal stimulation: Foxp3+ Treg induction; assay type: cell-based, mouse; settings: naïve T cells co-cultured 72 hours with BMDCs conditioned with indole
Method: FIG. 15 is a set of FACS plots showing that indole-conditioned DCs preferentially induce Foxp3+ Tregs (polyclonal stimulation). Naïve wild-type CD4+CD25− T cells were sorted and co-cultured with indole- or DMF-conditioned BMDCs. Cells were cultured together for 72 hours in the presence of soluble α-CD3 (5 ug/ml) as well as TGF-β (2 ng/ml) with or without IL-2 (100 U/ml). Subsequently, cells were stained for the transcription factor Foxp3 and analyzed by flow cytometry. Shaded gray histograms represent unstained controls. Representative data from one of four experiments is shown.
To investigate whether indole-conditioned DCs preferentially induce Tregs, a co-culture system using FACS-sorted wild-type naïve CD4+CD25− T cells was employed. These naïve T cells were activated by antibodies against CD3 and CD28 in the presence of indole-conditioned BMDCs and cultured for 72 hours. Under this platform for polyclonal stimulation, a 2-fold increase in Treg induction in indole-DC cultures compared to controls was observed (FIG. 15). Additionally, the inventors pursued the same question in a more physiologically relevant model; i.e., under monoclonal T cell stimulation. […]

In the case of c1ccc2[nH]ccc2c1 [Indole, indole], the “particle uptake by DCs” value (DCs) was “did not alter particle uptake”, the “inhibition of TNF production” value (TNF; splenic CD11c+ DCs, LPS or heat-killed S. typhimurium) was ≥ 2 fold and the “inhibition of TNF production” value (TNF; splenic DCs from AhR−/− mice, heat-killed S. typhimurium) was 2 fold. The “inhibition of TNF production” value (TNF; splenic DCs from WT mice, heat-killed S. typhimurium) was 2 fold, the aldh1a2 expression (aldh1a2) was “inhibits” and the “B220 (CD45R) expression on BMDCs” value (B220 (CD45R)) was “upregulation”. The “surface expression of CCR9 on conditioned DCs” value (CCR9) was 34%, the “DC maturation (MHC-II and CD86 expression)” value (MHC-II and CD86) was “did not alter DC maturation” and the “increase in Treg induction compared to controls” value (naïve CD4+CD25− T cells) was 2 fold.
